# Test results reported in PMC10709440, “High-throughput ligand profile characterization in novel cell lines expressing seven heterologous insect olfactory receptors for the detection of volatile plant biomarkers” (Scientific Reports, 2023).
# Like-named read-outs stand apart in the source and are kept apart here.
# How the values were obtained:
# Drosophila OR71a = target: T1, Drosophila OR71a (Drosophila melanogaster, UniProt Q9VUK5); test: Calcium ion fluorescence (GCaMP6) assay, OR71a stable HEK293 cell line; assay type: cell-based; conditions: for activation at 1 µM / activation at 10 µM / activation at 100 µM: HEK293, read-out: OR71a response (VUAA1-normalized response); for Average response: OR71a cell line, VUAA1-normalized response, mean of biological replicates; for DF norm AVERAGE OR71a: threshold 0.05, below shown as 0; for OR71a Average response (VUAA1-normalized): 50 μM VUAA1 = 1
# T1 construct: expressed in transfected cells
# T1 sequence (Q9VUK5 1-378): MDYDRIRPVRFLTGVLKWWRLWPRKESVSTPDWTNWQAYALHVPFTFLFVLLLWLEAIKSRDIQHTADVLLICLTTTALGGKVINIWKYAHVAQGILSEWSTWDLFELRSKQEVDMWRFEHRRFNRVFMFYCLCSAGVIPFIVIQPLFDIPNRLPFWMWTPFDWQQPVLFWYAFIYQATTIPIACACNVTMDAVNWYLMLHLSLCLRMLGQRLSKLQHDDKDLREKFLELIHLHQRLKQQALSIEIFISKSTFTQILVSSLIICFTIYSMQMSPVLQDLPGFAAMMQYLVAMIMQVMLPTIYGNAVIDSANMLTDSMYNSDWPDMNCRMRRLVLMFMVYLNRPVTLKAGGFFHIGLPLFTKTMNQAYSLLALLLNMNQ
# T1 sequence (Q9VNB5 1-486 partner): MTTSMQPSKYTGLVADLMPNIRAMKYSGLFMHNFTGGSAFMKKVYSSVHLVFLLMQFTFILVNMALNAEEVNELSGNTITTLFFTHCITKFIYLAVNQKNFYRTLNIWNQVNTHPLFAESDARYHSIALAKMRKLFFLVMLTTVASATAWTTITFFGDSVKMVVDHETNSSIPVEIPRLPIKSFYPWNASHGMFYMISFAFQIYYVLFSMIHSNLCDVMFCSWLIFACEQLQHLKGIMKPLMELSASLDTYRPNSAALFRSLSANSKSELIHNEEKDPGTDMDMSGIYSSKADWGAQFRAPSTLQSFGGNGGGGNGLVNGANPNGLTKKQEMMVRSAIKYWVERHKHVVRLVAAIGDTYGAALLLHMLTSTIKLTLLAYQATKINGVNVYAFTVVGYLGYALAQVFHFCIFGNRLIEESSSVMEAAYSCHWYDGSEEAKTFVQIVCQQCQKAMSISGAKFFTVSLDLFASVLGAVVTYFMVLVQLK
# Summary of the method: (§1)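 Responses are VUAA1-normalized ΔF: each VOC-evoked calcium signal, (FMAX−F0)/F0 over 30 s after injection, divided by the same line's mean 50 µM VUAA1 response. Cells were doxycycline-induced HEK293 with GCaMP6 and the cognate Drosophila OR, in HEPES buffer pH 7.3; ligands tested 0.01–100 μM.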
# Drosophila OR47a = target: T2, Drosophila OR47a (Drosophila melanogaster, UniProt P81921); test: Calcium ion fluorescence (GCaMP6) assay, OR47a stable HEK293 cell line; assay type: cell-based; conditions: for Average response: OR47a cell line, mean of biological replicates; for DF norm AVERAGE OR47a: threshold 0.05, below shown as 0; for OR47a Average response (VUAA1-normalized): 50 μM VUAA1 = 1
# T2 construct: expressed in transfected cells
# T2 sequence (P81921 1-385): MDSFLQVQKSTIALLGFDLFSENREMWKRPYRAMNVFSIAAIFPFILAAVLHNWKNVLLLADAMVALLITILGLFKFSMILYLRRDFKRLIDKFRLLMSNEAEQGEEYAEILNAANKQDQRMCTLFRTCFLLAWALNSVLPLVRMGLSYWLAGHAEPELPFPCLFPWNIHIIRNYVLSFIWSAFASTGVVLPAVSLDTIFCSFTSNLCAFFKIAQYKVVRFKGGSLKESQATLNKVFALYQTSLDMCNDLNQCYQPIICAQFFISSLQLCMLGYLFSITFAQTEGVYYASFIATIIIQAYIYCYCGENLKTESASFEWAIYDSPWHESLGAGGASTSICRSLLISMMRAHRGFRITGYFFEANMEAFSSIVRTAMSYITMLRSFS
# T2 sequence (Q9VNB5 1-486 partner): T1 sequence (Q9VNB5 1-486 partner)
# Summary of the method: as §1
# [1] = ligand concentration 1 (unit not given)
# [2] = ligand concentration 10 (unit not given)
# [3] = ligand concentration 100 (unit not given)
# [4] = HEK293, read-out: OR47a response (VUAA1-normalized response)
# [5] = HEK293, read-out: OR47a Average response (VUAA1-normalized)
Compound,activation at 1 µM (Drosophila OR71a),activation at 10 µM (Drosophila OR71a),activation at 100 µM (Drosophila OR71a),Average response (Drosophila OR71a; cc. 1 µM),Average response (Drosophila OR71a; cc. 10 µM),Average response (Drosophila OR71a; cc. 100 µM),DF norm AVERAGE OR71a (Drosophila OR71a; [1]),DF norm AVERAGE OR71a (Drosophila OR71a; [2]),DF norm AVERAGE OR71a (Drosophila OR71a; [3]),activation at 1 µM (Drosophila OR47a; [4]),activation at 10 µM (Drosophila OR47a; [4]),activation at 100 µM (Drosophila OR47a; [4]),Average response (Drosophila OR47a; odorant cc. 1 µM),Average response (Drosophila OR47a; odorant cc. 10 µM),Average response (Drosophila OR47a; odorant cc. 100 µM),DF norm AVERAGE OR47a (Drosophila OR47a; [1]),DF norm AVERAGE OR47a (Drosophila OR47a; [2]),DF norm AVERAGE OR47a (Drosophila OR47a; [3]),other results
CC1=CCC2CC1C2(C)C (stereo not drawn) [alpha-pinene],0%,0%,0%,0.0368,0.00,0.00,0,0,0,0%,0%,0%,0.04,0.00,0.0468,0,0,0,–
CC1=CC[C@@H](C(C)(C)O)CC1 [alpha-terpineol],0%,0%,0%,0.00,0.00,0.04,0,0,0,0%,0%,0%,0.00,0.00,0.00,0,0,0,–
O=Cc1ccccc1 [benzaldehyde],0%,0%,0%,0.03,0.00,0.00,0,0,0,0%,0%,0%,0.03,0.00,0.00,0,0,0,–
C=C1CCC2CC1C2(C)C (stereo not drawn) [beta-pinene],0%,0%,0%,0.0344,0.0361,0.00,0,0,0,0%,0%,0%,0.00,0.00,0.00,0,0,0,–
CCCCCCCCCC=O [decanal],0%,0%,0%,0.00,0.00,0.0139,0,0,0,0%,0%,0%,0.00,0.00,0.00,0,0,0,–
CC/C=C/CCO [e3-hexenol],–,–,–,0.00,0.0432,0.0275,0,0,0,–,–,–,0.06,0.00,0.14,0.06256,0,0.1396,OR47a Average response (VUAA1-normalized) (Drosophila OR47a; 1 μM VOC): 0.06; OR47a Average response (VUAA1-normalized) (Drosophila OR47a; 10 μM VOC): 0.00; OR47a Average response (VUAA1-normalized) (Drosophila OR47a; 100 μM VOC): 0.14
"CC(C)=CCC/C(C)=C/CC/C(C)=C/CO [e,e-farnesol]",–,–,–,0.00,0.0452,0.00,0,0,0,–,–,–,0.03,0.00,0.032,0,0,0,OR71a response (VUAA1-normalized response) (Drosophila OR71a; VOC concentration 1 μM): 0.00; OR71a response (VUAA1-normalized response) (Drosophila OR71a; VOC concentration 10 μM): 0.00; OR71a response (VUAA1-normalized response) (Drosophila OR71a; VOC concentration 100 μM): 0.00; OR47a response (VUAA1-normalized response) (Drosophila OR47a; VOC concentration 1 μM): 0.00; OR47a response (VUAA1-normalized response) (Drosophila OR47a; VOC concentration 10 μM): 0.00; OR47a response (VUAA1-normalized response) (Drosophila OR47a; VOC concentration 100 μM): 0.00
CCOC(=O)c1ccccc1 [ethyl benzoate],0%,5.54%,11%,0.04,0.0554,0.11,0,0.05543,0.1075,0%,0%,10%,0.0468,0.00,0.10,0,0,0.09883,OR71a Average response (VUAA1-normalized) (Drosophila OR71a; 1 μM VOC): 0.04; OR71a Average response (VUAA1-normalized) (Drosophila OR71a; 10 μM VOC): 0.06; OR71a Average response (VUAA1-normalized) (Drosophila OR71a; 100 μM VOC): 0.11; activation at 1 µM (Drosophila OR47a; [5]): 5%; activation at 10 µM (Drosophila OR47a; [5]): 0%; activation at 100 µM (Drosophila OR47a; [5]): 10%
CCCC(=O)OCC [ethyl butyrate],0%,0%,0%,0.00,0.00,0.00,0,0,0,0%,0%,0%,0.00,0.00,0.0448,0,0,0,–
CCCCCC(=O)OCC [ethyl hexanoate],0%,0%,0%,0.0156,0.0153,0.00,0,0,0,6.62%,26%,67%,0.0662,0.26,0.67,0.06617,0.2596,0.6687,activation at 1 µM (Drosophila OR47a; [5]): 7%; activation at 10 µM (Drosophila OR47a; [5]): 26%; activation at 100 µM (Drosophila OR47a; [5]): 67%
